This is an account of results in BindingDB's records for doi:10.1021/jm00040a008 (Harvard Medical School, 1994).

This assay is described as follows: Tested in vitro for inhibitory concentration against CCRF-CEM human Leukemic lymphoblast by using DHFR as primary target.

Consider `CCC(Cc1cnc2nc(N)nc(N)c2n1)c1ccc(C(=O)N[C@@H](CCC(=O)O)C(=O)O)cc1` (stereo partly specified) [Edatrexate], for which the IC50 stood at 2.6 nM.

By IC50 is commonly meant the concentration needed to halve the response being measured.
